How the values were obtained:
[1] = test system: totipotency genes, maternal genes and ZGA genes; assay: RNA-seq analysis of specific gene sets in totipotent cell induction; assay type: cell-based, mouse; conditions: for role in induction of totipotent stem cells (upregulation of totipotency genes, maternal genes and ZGA genes): RNA-seq, specific gene sets
[2] = test system: totipotent stem cells (ciTotiSCs); assay: Cell cycle G2 phase of totipotent stem cells (ciTotiSCs); assay type: cell-based, mouse; conditions: 1-Azakenpaullone withdrawn from ciTotiSC culture conditions
Description: (§1) Meanwhile, the inventors also observed a prolongation of the G2 phase of the cell cycle after induction of totipotent stem cells (ciTotiSCs), which was consistent with the difference between early 2C embryos and blastocysts (FIG. 10i).

Wnt signaling [3] = assay: GO analysis of Wnt signaling-targeted genes in ciTotiSC culture conditions; assay type: cell-based, mouse; conditions: 1-AKP withdrawn in ciTotiSC culture conditions
Description: as §1

Wnt signaling [4] = conditions: studies have shown; cited from earlier work
NF-κB signaling = assay: GO analysis and gene expression after WS6 withdrawal in ciTotiSC culture conditions; assay type: cell-based, mouse
Description: WS6 is an IKK—NF-κB inhibitor that was previously shown to promote post-mitotic cell proliferation. […] Furthermore, it has been reported that downregulation of NF-κB during zygote development is critical for its totipotent state, and activation of NF-κB triggers subsequent development after ZGA (Akihiko Nishikimi, 1999; Paciolla et al. 2011). Therefore, WS6 may play a role in promoting and stabilizing induction of totipotent stem cells (ciTotiSCs), in part by inhibiting the NF-κB mediated immune response triggered by ERV activation (FIGS. 10k, j).

O=C1Cc2c([nH]c3ccc(Br)cc23)-c2ncccc2N1 [1-Azakenpaullone]
role in induction of totipotent stem cells (upregulation of totipotency genes, maternal genes and ZGA genes) [1]: important for the induction of totipotent stem cells | G2 phase prolongation of ciTotiSCs after withdrawal [2]: reduced | specific Wnt signaling-targeted genes after withdrawal (Wnt signaling [3]): not up-regulated | Wnt signaling downstream gene expression and cell cycle arrest (Wnt signaling [4]): induces specific Wnt signaling downstream gene expression and G2/M arrest simultaneously

CN1CCN(Cc2ccc(NC(=O)Cc3ccc(Oc4cc(NC(=O)C5CC5)ncn4)cc3)cc2C(F)(F)F)CC1 [WS6]
role in induction of totipotent stem cells (upregulation of totipotency genes, maternal genes and ZGA genes) [1]: important for the induction of totipotent stem cells | expression of genes downstream of NF-κB signaling (NF-κB signaling; WS6 withdrawn): up-regulated | GO analysis of differential genes after WS6 ablation (NF-κB signaling; ciTotiSC culture conditions): enriched multiple innate immunity-related pathways, especially NF-κB signaling

Cc1ccc(C2=CCC(C)(C)c3ccc(C#Cc4ccc(C(=O)O)cc4)cc32)cc1 [AGN193109]
gene induction in the presence of the RA antagonist ([1]; in the presence of AGN193109): could not be induced

C/C(=C\c1ccc(C(=O)O)cc1)c1ccc2c(c1)C(C)(C)CCC2(C)C [TTNPB]
activation of totipotency, maternal and ZGA genes rich in RAR-binding motifs [1]: could directly activate | role in induction of totipotent stem cells (upregulation of totipotency genes, maternal genes and ZGA genes) [1]: important for the induction of totipotent stem cells
